“And” between values parts separate entries of the source, which are not always exact repeats. Equal entries are not always repeated.
Assay: xn = mol fraction of the nth substance listed

CS(C)=O + O
viscosity
Settings	293.15 K	298.15 K
101 kPa, x1 = 0.01	1.11 mPa·s	–
101 kPa, x1 = 0.01869	–	1.01 mPa·s
101 kPa, x1 = 0.025	1.23 mPa·s	–
101 kPa, x1 = 0.039	1.38 mPa·s	–
101 kPa, x1 = 0.0406	–	1.19 mPa·s
101 kPa, x1 = 0.05	1.502 mPa·s	1.318 mPa·s
101 kPa, x1 = 0.055	1.55 mPa·s	–
101 kPa, x1 = 0.06619	–	1.44 mPa·s
101 kPa, x1 = 0.071	1.74 mPa·s	–
101 kPa, x1 = 0.09	1.97 mPa·s	–
101 kPa, x1 = 0.11	2.23 mPa·s	–
101 kPa, x1 = 0.13	2.54 mPa·s	–
101 kPa, x1 = 0.15	2.815 mPa·s	2.438 mPa·s
101 kPa, x1 = 0.16	2.9 mPa·s	–
101 kPa, x1 = 0.19	3.28 mPa·s	–
101 kPa, x1 = 0.2	–	3.156 mPa·s
101 kPa, x1 = 0.22	3.68 mPa·s	–
101 kPa, x1 = 0.25	4.042 mPa·s	3.4 mPa·s
101 kPa, x1 = 0.26	4.02 mPa·s	–
101 kPa, x1 = 0.3	4.26 mPa·s	–
101 kPa, x1 = 0.35	4.375 mPa·s and 4.4 mPa·s	3.763 mPa·s
101 kPa, x1 = 0.4	–	3.799 mPa·s
101 kPa, x1 = 0.41	4.29 mPa·s	–
101 kPa, x1 = 0.48	3.913 mPa·s and 3.97 mPa·s	3.395 mPa·s and 3.446 mPa·s
101 kPa, x1 = 0.57	3.54 mPa·s	–
101 kPa, x1 = 0.6	–	3.008 mPa·s
101 kPa, x1 = 0.67	3.08 mPa·s	–
101 kPa, x1 = 0.73	2.9 mPa·s	2.507 mPa·s
101 kPa, x1 = 0.8	–	2.375 mPa·s
101 kPa, x1 = 0.81	2.62 mPa·s	–
101 kPa, x2 = 0.047	–	2.054 mPa·s
101 kPa, x2 = 0.089	–	2.118 mPa·s
101 kPa, x2 = 0.186	–	2.298 mPa·s
101 kPa, x2 = 0.2	–	2.3 mPa·s
101 kPa, x2 = 0.3	–	2.7 mPa·s
101 kPa, x2 = 0.335	–	2.708 mPa·s
101 kPa, x2 = 0.522	–	3.449 mPa·s
101 kPa, x2 = 0.59	–	3.676 mPa·s
101 kPa, x2 = 0.651	–	3.764 mPa·s
101 kPa, x2 = 0.702	–	3.674 mPa·s
101 kPa, x2 = 0.743	–	3.467 mPa·s
101 kPa, x2 = 0.812	–	2.854 mPa·s
101 kPa, x2 = 0.867	–	2.232 mPa·s
101 kPa, x2 = 0.91	–	1.748 mPa·s
101 kPa, x2 = 0.945	–	1.382 mPa·s
101 kPa, x2 = 0.975	–	1.11 mPa·s
101.3 kPa, x1 = 0.012	1.112 mPa·s	0.986 mPa·s
101.3 kPa, x2 = 0.1906	2.569 mPa·s	2.299 mPa·s
101.3 kPa, x2 = 0.3252	2.966 mPa·s	2.63 mPa·s
101.3 kPa, x2 = 0.5203	3.891 mPa·s	3.38 mPa·s
101.3 kPa, x2 = 0.6501	4.352 mPa·s	3.727 mPa·s
101.3 kPa, x2 = 0.743	3.998 mPa·s	3.414 mPa·s
101.3 kPa, x2 = 0.8183	3.231 mPa·s	2.773 mPa·s
101.3 kPa, x2 = 0.8668	2.57 mPa·s	–
101.3 kPa, x2 = 0.9101	2.008 mPa·s	1.747 mPa·s
101.3 kPa, x2 = 0.9455	1.575 mPa·s	1.383 mPa·s
101.3 kPa, x2 = 0.9751	1.247 mPa·s	1.101 mPa·s
101.33 kPa, x1 = 0.00588	1.053 mPa·s	–
101.33 kPa, x1 = 0.012	1.112 mPa·s	–
101.33 kPa, x1 = 0.02498	1.264 mPa·s	–
101.33 kPa, x1 = 0.03901	1.402 mPa·s	–
101.33 kPa, x1 = 0.04864	1.515 mPa·s	–
101.33 kPa, x1 = 0.0545	1.559 mPa·s	–
101.33 kPa, x1 = 0.08993	2.009 mPa·s	–
101.33 kPa, x1 = 0.1332	2.589 mPa·s	–
101.33 kPa, x1 = 0.1469	2.743 mPa·s	–
101.33 kPa, x1 = 0.1874	3.319 mPa·s	–
101.33 kPa, x1 = 0.2998	4.296 mPa·s	–
101.33 kPa, x1 = 0.3498	4.385 mPa·s	–
101.33 kPa, x1 = 0.4498	4.091 mPa·s	–
101.33 kPa, x1 = 0.5665	3.498 mPa·s	–
101.33 kPa, x1 = 0.651	3.211 mPa·s	–
101.33 kPa, x1 = 0.7539	2.743 mPa·s	–
101.33 kPa, x1 = 0.847	2.514 mPa·s	–
101.33 kPa, x2 = 0.2097	–	2.291 mPa·s
101.33 kPa, x2 = 0.3132	–	2.568 mPa·s
101.33 kPa, x2 = 0.409	–	2.909 mPa·s
101.33 kPa, x2 = 0.503	–	3.197 mPa·s
101.33 kPa, x2 = 0.7032	–	3.569 mPa·s
101.33 kPa, x2 = 0.8053	–	2.858 mPa·s
101.33 kPa, x2 = 0.9021	–	1.787 mPa·s

— the CheMixHub viscosity set
